IC50 data for 23 compounds are collected here from patent US20130252890A1, “6,7-DIHYDRO-5H-BENZO[7]ANNULENE DERIVATIVES, PROCESS FOR PREPARATION THEREOF, PHARMACEUTICAL PREPARATIONS COMPRISING THEM, AND THE USE THEREOF FOR PRODUCTION OF MEDICAMENTS” (BAYER INTELLECTUAL PROPERTY GMBH, priority 2010, published 2013).

The target of the assay is T1, oestrogen receptor (ER) (Homo sapiens, UniProt P03372).
T1 construct: These MVLN cells express, along with the functional oestrogen receptor (ER), a reporter construct; endogenous in cells; host or cells: MVLN cells (MCF7 derivative carrying a luciferase reporter construct)
T1 sequence (P03372 1-595): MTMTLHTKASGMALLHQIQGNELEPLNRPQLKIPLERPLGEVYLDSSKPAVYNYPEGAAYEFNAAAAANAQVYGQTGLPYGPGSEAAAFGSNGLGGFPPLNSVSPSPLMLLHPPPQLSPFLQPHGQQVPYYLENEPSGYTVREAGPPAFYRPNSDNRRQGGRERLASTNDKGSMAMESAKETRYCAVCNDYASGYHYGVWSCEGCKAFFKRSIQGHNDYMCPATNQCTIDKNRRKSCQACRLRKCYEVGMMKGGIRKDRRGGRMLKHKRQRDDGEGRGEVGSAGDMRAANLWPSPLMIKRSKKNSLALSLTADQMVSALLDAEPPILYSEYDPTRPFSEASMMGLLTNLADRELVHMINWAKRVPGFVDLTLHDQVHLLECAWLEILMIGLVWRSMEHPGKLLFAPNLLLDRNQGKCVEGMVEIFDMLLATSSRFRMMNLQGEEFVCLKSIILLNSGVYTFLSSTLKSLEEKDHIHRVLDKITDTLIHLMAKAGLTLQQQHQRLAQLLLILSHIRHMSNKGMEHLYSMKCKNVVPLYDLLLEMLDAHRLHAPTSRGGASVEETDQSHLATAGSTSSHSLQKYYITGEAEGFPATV
Kind of assay: Anti-oestrogenic action in MVLN cells (inhibition of estradiol-induced luciferase). In kind it is cell-based. Particulars: inhibition of estradiol-induced luciferase signal, value of Ex. 44 is a mean value, read-out: Antioestrogenic action in vitro: MVLN transactivation antagonism IC50. An excerpt: The anti-oestrogenic action of the claimed pharmacological compounds was investigated in so-called MVLN cells in vitro. MVLN cells are derivatives of the hormone-responsive MCF7 breast cancer cells known by a person skilled in the art. These MVLN cells express, along with the functional oestrogen receptor (ER), a reporter construct, which under ER-activation expresses luciferase. Determination of the activity of the induced luciferase permits a direct conclusion on the oestrogen properties of substances. To investigate the anti-oestrogenic properties of the pharmacological compounds, they were investigated in the presence of oestrogen for their potential for inhibiting the luciferase signal induced by estradiol. The claimed pharmacological test substances were investigated in MVLN cells for their anti-oestrogenic potential, as described (see Table 2).
As for `CN(CCCCCCC1=C(c2ccc(F)cc2)CCCc2c1ccc(O)c2F)CCCS(=O)(=O)CCC(F)(F)F` [Example 37, 4-Fluoro-8-(4-fluorophenyl)-9-[6-(methyl{3-[(3,3,3-trifluoropropyl)sulphonyl]propyl}amino)hexyl]-6,7-dihydro-5H-benzo[7]annulen-3-ol], the IC50 (commonly the concentration that gives 50% inhibition) was 53 nM. In the case of `CN(CCCCCCC1=C(c2ccc(F)cc2)CCCc2c1ccc(O)c2F)CCCS(=O)(=O)CCCC(F)(F)F` [Example 38, 4-Fluoro-8-(4-fluorophenyl)-9-[6-(methyl{3-[(4,4,4-trifluorobutyl)sulphonyl]propyl}amino)hexyl]-6,7-dihydro-5H-benzo[7]annulen-3-ol] it was 27 nM; in that of `CN(CCCCCCC1=C(c2ccc(F)cc2)CCCc2c1ccc(O)c2F)CCCCS(=O)(=O)CCCC(F)(F)C(F)(F)F` [Example 39, 4-Fluoro-8-(4-fluorophenyl)-9-[6-(methyl{4-[(4,4,5,5,5-pentafluoropentyl)sulphonyl]butyl}amino)hexyl]-6,7-dihydro-5H-benzo[7]annulen-3-ol], 8 nM. For `COCCN(CCCCCCC1=C(c2ccc(F)cc2)CCCc2c1ccc(O)c2F)CCCS(=O)(=O)CCCC(F)(F)C(F)(F)F` [Example 40, 4-Fluoro-8-(4-fluorophenyl)-9-{6-[(2-methoxyethyl){3-[(4,4,5,5,5-pentafluoropentyl)sulphonyl]propyl}amino]hexyl}-6,7-dihydro-5H-benzo[7]annulen-3-ol], the IC50 amounted to 170 nM. As to `COCCCN(CCCCCCC1=C(c2ccc(F)cc2)CCCc2c1ccc(O)c2F)CCCS(=O)(=O)CCCC(F)(F)C(F)(F)F` [Example 41, 4-Fluoro-8-(4-fluorophenyl)-9-{6-[(3-methoxypropyl){3-[(4,4,5,5,5-pentafluoropentyl)sulphonyl]propyl}amino]hexyl}-6,7-dihydro-5H-benzo[7]annulen-3-ol], the IC50 was determined as 42 nM. The figure for `CN(CCCCCCC1=C(c2ccc(F)cc2)CCCc2c1ccc(O)c2F)CCC[S+]([O-])CCCC(F)(F)C(F)(F)F` (centres unmarked) [Example 42, 4-Fluoro-8-(4-fluorophenyl)-9-[6-(methyl{3-[(4,4,5,5,5-pentafluoropentyl)sulphinyl]propyl}amino)hexyl]-6,7-dihydro-5H-benzo[7]annulen-3-ol] is 13 nM; for `CN(CCCCCCC1=C(c2ccc(F)cc2)CCCc2c1ccc(O)c2F)CCCCS(=O)(=O)CCCC(F)(F)C(F)(F)F` [Example 43, 4-Fluoro-8-(4-fluorophenyl)-9-[6-(methyl{4-[(4,4,5,5,5-pentafluoropentyl)sulphonyl]butyl}amino)hexyl]-6,7-dihydro-5H-benzo[7]annulen-3-ol] it is 20 nM; for `CN(CCCCCCC1=C(c2ccc(F)c(F)c2)CCCc2cc(O)ccc21)CCCCS(=O)(=O)CCC(F)(F)F` [Example 47, 8-(3,4-Difluorophenyl)-9-[6-(methyl{4-[(3,3,3-trifluoropropyl)sulphonyl]butyl}amino)hexyl]-6,7-dihydro-5H-benzo[7]annulen-3-ol] it is 26 nM. In the case of `CN(CCCCCC1=C(c2ccc(F)cc2)CCCc2cc(O)ccc21)CCCCS(=O)(=O)CCCC(F)(F)F` [Example 49, 8-(4-Fluorophenyl)-9-[5-(methyl{4-[(4,4,4-trifluorobutyl)sulphonyl]butyl}amino)pentyl]-6,7-dihydro-5H-benzo[7]annulen-3-ol] it was 181 nM; in that of `CN(CCCCCCC1=C(c2ccc(F)cc2)CCCc2c1ccc(O)c2F)CCCCS(=O)(=O)CCC(F)(F)F` [Example 50, 4-Fluoro-8-(4-fluorophenyl)-9-[6-(methyl{4-[(3,3,3-trifluoropropyl)sulphonyl]butyl}amino)hexyl]-6,7-dihydro-5H-benzo[7]annulen-3-ol], 16 nM. Turning to `CN(CCCCCC1=C(c2ccc(F)cc2)CCCc2cc(O)ccc21)CCCCS(=O)(=O)CCC(F)(F)F` [Example 52, 8-(4-Fluorophenyl)-9-[5-(methyl{4-[(3,3,3-trifluoropropyl)sulphonyl]butyl}amino)pentyl]-6,7-dihydro-5H-benzo[7]annulen-3-ol], the IC50 is 521 nM. Take `CN(CCCCCCC1=C(c2ccc(F)cc2)CCCc2cc(O)ccc21)CCCS(=O)(=O)CCC(F)(F)F` [Example 53, 8-(4-Fluorophenyl)-9-[6-(methyl{3-[(3,3,3-trifluoropropyl)sulphonyl]propyl}amino)hexyl]-6,7-dihydro-5H-benzo[7]annulen-3-ol]: the 50% inhibitory concentration (IC50) was determined as 85 nM. `O=S(=O)(CCCN(CCO)CCCCCCC1=C(c2ccc(F)cc2)CCCc2cc(O)ccc21)CCCC(F)(F)C(F)(F)F` [Example 54, 8-(4-Fluorophenyl)-9-{6-[(2-hydroxyethyl){3-[(4,4,5,5,5-pentafluoropentyl)sulphonyl]propyl}amino]hexyl}-6,7-dihydro-5H-benzo[7]annulen-3-ol]: the IC50 came to 27 nM. With `O=S(=O)(CCCN(CCCO)CCCCCCC1=C(c2ccc(F)cc2)CCCc2cc(O)ccc21)CCCC(F)(F)C(F)(F)F` [Example 55, 8-(4-Fluorophenyl)-9-{6-[(3-hydroxypropyl){3-[(4,4,5,5,5-pentafluoropentyl)sulphonyl]propyl}amino]hexyl}-6,7-dihydro-5H-benzo[7]annulen-3-ol], the IC50 came to 22 nM. In the case of `O=S(=O)(CCCN(CCO)CCCCCCC1=C(c2ccc(F)cc2)CCCc2cc(O)ccc21)CCC(F)(F)F` [Example 56, 8-(4-Fluorophenyl)-9-{6-[(2-hydroxyethyl){3-[(3,3,3-trifluoropropyl)sulphonyl]propyl}amino]hexyl}-6,7-dihydro-5H-benzo[7]annulen-3-ol] it was 29 nM. As to `O=S(=O)(CCCN(CCCO)CCCCCCC1=C(c2ccc(F)cc2)CCCc2cc(O)ccc21)CCC(F)(F)F` [Example 57, 8-(4-Fluorophenyl)-9-{6-[(3-hydroxypropyl){3-[(3,3,3-trifluoropropyl)sulphonyl]propyl}amino]hexyl}-6,7-dihydro-5H-benzo[7]annulen-3-ol], the 50% inhibitory concentration (IC50) is 111 nM. The figure for `O=S(=O)(CCCN(CCCCCCC1=C(c2ccc(F)cc2)CCCc2cc(O)ccc21)Cc1ccc(F)cc1)CCCC(F)(F)C(F)(F)F` [Example 58, 9-{6-[(4-Fluorobenzyl){3-[(4,4,5,5,5-pentafluoropentyl)sulphonyl]propyl}amino]hexyl}-8-(4-fluorophenyl)-6,7-dihydro-5H-benzo[7]annulen-3-ol] is 184 nM. As to `O=S(=O)(CCCN(CCO)CCCCCCC1=C(c2ccc(F)cc2)CCCc2c1ccc(O)c2F)CCCC(F)(F)C(F)(F)F` [Example 59, 4-Fluoro-8-(4-fluorophenyl)-9-{6-[(2-hydroxyethyl){3-[(4,4,5,5,5-pentafluoropentyl)sulphonyl]propyl}amino]hexyl}-6,7-dihydro-5H-benzo[7]annulen-3-ol], the IC50 came to 16 nM. The figure for `O=S(=O)(CCCN(CCCO)CCCCCCC1=C(c2ccc(F)cc2)CCCc2c1ccc(O)c2F)CCCC(F)(F)C(F)(F)F` [Example 60, 4-Fluoro-8-(4-fluorophenyl)-9-{6-[(3-hydroxypropyl){3-[(4,4,5,5,5-pentafluoropentyl)sulphonyl]propyl}amino]hexyl}-6,7-dihydro-5H-benzo[7]annulen-3-ol] is 15 nM. The figure for `O=S(=O)(CCCN(CCO)CCCCCCC1=C(c2ccc(F)cc2)CCCc2c1ccc(O)c2F)CCC(F)(F)F` [Example 61, 4-Fluoro-8-(4-fluorophenyl)-9-{6-[(2-hydroxyethyl){3-[(3,3,3-trifluoropropyl)sulphonyl]propyl}amino]hexyl}-6,7-dihydro-5H-benzo[7]annulen-3-ol] is 24 nM; for `O=S(=O)(CCCN(CCCO)CCCCCCC1=C(c2ccc(F)cc2)CCCc2c1ccc(O)c2F)CCC(F)(F)F` [Example 62, 4-Fluoro-8-(4-fluorophenyl)-9-{6-[(3-hydroxypropyl){3-[(3,3,3-trifluoropropyl)sulphonyl]propyl}amino]hexyl}-6,7-dihydro-5H-benzo[7]annulen-3-ol] it is 84 nM. `CC(C)(C)N(CCCCCCC1=C(c2ccc(F)cc2)CCCc2c1ccc(O)c2F)CCCS(=O)(=O)CCCC(F)(F)C(F)(F)F` [Example 63, 9-[6-(tert-Butyl{3-[(4,4,5,5,5-pentafluoropentyl)sulphonyl]propyl}amino)hexyl]-4-fluoro-8-(4-fluorophenyl)-6,7-dihydro-5H-benzo[7]annulen-3-ol]: the concentration for half-maximal inhibition (IC50) was 95 nM. The figure for `O=S(=O)(CCCN(CCCCCCC1=C(c2ccc(F)cc2)CCCc2c1ccc(O)c2F)CC(F)F)CCCC(F)(F)C(F)(F)F` [Example 64, 9-{6-[(2,2-Difluoroethyl){3-[(4,4,5,5,5-pentafluoropentyl)sulphonyl]propyl}amino]hexyl}-4-fluoro-8-(4-fluorophenyl)-6,7-dihydro-5H-benzo[7]annulen-3-ol] is 86 nM.
